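Five concentrations, 48 hours, 96-well plates. TGI denotes the concentration required for complete inhibition of growth.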
Assays:
Assay in all cases: NCI anticancer screen, dose series, 48 h
[1] = system: 786-0 renal
[2] = system: A498 renal
[3] = system: A549 NSCLC
[4] = system: ACHN renal
[5] = system: BT-549 breast
[6] = system: CAKI-1 renal
[7] = system: CCRF-CEM leukemia
[8] = system: COLO 205 colon
[9] = system: DU-145 prostate
[10] = system: EKVX NSCLC
[11] = system: HCC-2998 colon
[12] = system: HCT-116 colon
[13] = system: HCT-15 colon
[14] = system: HL-60(TB) leukemia
[15] = system: HOP-62 NSCLC
[16] = system: HOP-92 NSCLC
[17] = system: HS 578T breast
[18] = system: HT29 colon
[19] = system: IGROV1 ovarian
[20] = system: K-562 leukemia
[21] = system: KM12 colon
[22] = system: LOX IMVI melanoma
[23] = system: M14 melanoma
[24] = system: MALME-3M melanoma
[25] = system: MCF7 breast
[26] = system: MDA-MB-231 breast
[27] = system: MDA-MB-435
[28] = system: MDA-N
[29] = system: MOLT-4 leukemia
[30] = system: NCI-H226 lung
[31] = system: NCI-H23 lung
[32] = system: NCI-H460 lung
[33] = system: NCI-H522 lung
[34] = system: NCI/ADR-RES ovarian
[35] = system: OVCAR-3 ovarian
[36] = system: OVCAR-4 ovarian
[37] = system: OVCAR-5 ovarian
[38] = system: OVCAR-8 ovarian
[39] = system: PC-3 prostate
[40] = system: RPMI-8226 leukemia
[41] = system: SF-268 CNS
[42] = system: SF-295 CNS
[43] = system: SF-539 CNS
[44] = system: SK-MEL-2 melanoma
[45] = system: SK-MEL-28 melanoma
[46] = system: SK-MEL-5 melanoma
[47] = system: SK-OV-3 ovarian
[48] = system: SN12C renal
[49] = system: SNB-19 CNS
[50] = system: SNB-75 CNS
[51] = system: SR leukemia
[52] = system: SW-620 colon
[53] = system: T-47D breast
[54] = system: TK-10 renal
[55] = system: U251 CNS
[56] = system: UACC-257 melanoma
[57] = system: UACC-62 melanoma
[58] = system: UO-31 renal
[59] = system: RXF 393 renal

## O=C(Cn1c(=O)oc2ccc(C(=O)c3ccccc3Cl)cc21)c1ccc([N+](=O)[O-])cc1
[1]
  TGI: > 100 µM
[2]
  TGI: > 100 µM
[3]
  TGI: > 100 µM
[4]
  TGI: > 100 µM
[5]
  TGI: 75 µM
[6]
  TGI: > 100 µM
[7]
  TGI: > 100 µM
[8]
  TGI: 39.6 µM
[9]
  TGI: > 100 µM
[10]
  TGI: > 100 µM
[11]
  TGI: 34.6 µM
[12]
  TGI: 35.6 µM
[13]
  TGI: 65.4 µM
[14]
  TGI: > 100 µM
[15]
  TGI: > 100 µM
[16]
  TGI: > 100 µM
[17]
  TGI: > 100 µM
[18]
  TGI: > 100 µM
[19]
  TGI: > 100 µM
[20]
  TGI: 83 µM
[21]
  TGI: 58.1 µM
[22]
  TGI: 30.9 µM
[23]
  TGI: 47.5 µM
[24]
  TGI: 69.5 µM
[25]
  TGI: 89.1 µM
[26]
  TGI: 79.7 µM
[27]
  TGI: 46.6 µM
[28]
  TGI: 39.1 µM
[29]
  TGI: > 100 µM
[30]
  TGI: > 100 µM
[31]
  TGI: > 100 µM
[32]
  TGI: 55.7 µM
[33]
  TGI: 39.9 µM
[34]
  TGI: > 100 µM
[35]
  TGI: 59.4 µM
[36]
  TGI: > 100 µM
[37]
  TGI: > 100 µM
[38]
  TGI: > 100 µM
[39]
  TGI: > 100 µM
[40]
  TGI: 77.2 µM
[41]
  TGI: > 100 µM
[42]
  TGI: 81.7 µM
[43]
  TGI: 65.9 µM
[44]
  TGI: 41.6 µM
[45]
  TGI: > 100 µM
[46]
  TGI: 40.5 µM
[47]
  TGI: 66 µM
[48]
  TGI: 65.5 µM
[49]
  TGI: > 100 µM
[50]
  TGI: > 100 µM
[51]
  TGI: > 100 µM
[52]
  TGI: > 100 µM
[53]
  TGI: 56.5 µM
[54]
  TGI: > 100 µM
[55]
  TGI: > 100 µM
[56]
  TGI: 90.3 µM
[57]
  TGI: 40.7 µM
[58]
  TGI: > 100 µM

## O=C(Cc1ccccc1)N=Nc1c(O)[nH]c2ccccc12
[1]
  TGI: > 100 µM
[2]
  TGI: 80.4 µM
[3]
  TGI: > 100 µM
[4]
  TGI: > 100 µM
[5]
  TGI: > 100 µM
[7]
  TGI: > 100 µM
[8]
  TGI: > 100 µM
[9]
  TGI: > 100 µM
[10]
  TGI: > 100 µM
[11]
  TGI: > 100 µM
[12]
  TGI: > 100 µM
[13]
  TGI: > 100 µM
[15]
  TGI: > 100 µM
[17]
  TGI: > 100 µM
[18]
  TGI: > 100 µM
[19]
  TGI: > 100 µM
[20]
  TGI: > 100 µM
[21]
  TGI: > 100 µM
[23]
  TGI: > 100 µM
[24]
  TGI: > 100 µM
[25]
  TGI: > 100 µM
[26]
  TGI: > 100 µM
[27]
  TGI: > 100 µM
[28]
  TGI: > 100 µM
[29]
  TGI: > 100 µM
[30]
  TGI: > 100 µM
[31]
  TGI: > 100 µM
[32]
  TGI: > 100 µM
[33]
  TGI: > 100 µM
[34]
  TGI: > 100 µM
[35]
  TGI: > 100 µM
[36]
  TGI: > 100 µM
[37]
  TGI: > 100 µM
[38]
  TGI: > 100 µM
[39]
  TGI: > 100 µM
[59]
  TGI: > 100 µM
[41]
  TGI: 70.7 µM
[42]
  TGI: > 100 µM
[43]
  TGI: > 100 µM
[44]
  TGI: > 100 µM
[46]
  TGI: > 100 µM
[47]
  TGI: > 100 µM
[48]
  TGI: > 100 µM
[49]
  TGI: > 100 µM
[50]
  TGI: > 100 µM
[51]
  TGI: > 100 µM
[53]
  TGI: > 100 µM
[54]
  TGI: > 100 µM
[55]
  TGI: > 100 µM
[56]
  TGI: > 100 µM
[57]
  TGI: > 100 µM
[58]
  TGI: > 100 µM

## CCn1c2ccc(C(=O)CCCN(C)C)cc2c2cc(C(=O)CCCN(C)C)ccc21
[1]
  TGI: 2.82 µM
[2]
  TGI: 4.51 µM
[3]
  TGI: 3.27 µM
[4]
  TGI: 6.06 µM
[5]
  TGI: 12.4 µM
[6]
  TGI: 7.42 µM
[7]
  TGI: 10.1 µM
[8]
  TGI: 6.92 µM
[9]
  TGI: 8.34 µM
[10]
  TGI: 6.79 µM
[11]
  TGI: 6.05 µM
[12]
  TGI: 11.6 µM
[13]
  TGI: 8.92 µM
[14]
  TGI: 3.78 µM
[15]
  TGI: 3.48 µM
[16]
  TGI: 9.24 µM
[17]
  TGI: 6.35 µM
[18]
  TGI: 4.24 µM
[19]
  TGI: 4.23 µM
[20]
  TGI: 32.3 µM
[21]
  TGI: 11.2 µM
[22]
  TGI: 4.76 µM
[23]
  TGI: 5.1 µM
[24]
  TGI: 11 µM
[25]
  TGI: 13.1 µM
[26]
  TGI: 3.37 µM
[27]
  TGI: 2.82 µM
[28]
  TGI: 6.8 µM
[29]
  TGI: > 100 µM
[30]
  TGI: 8.61 µM
[31]
  TGI: 4.29 µM
[32]
  TGI: 2.61 µM
[33]
  TGI: 8.68 µM
[34]
  TGI: 21.9 µM
[35]
  TGI: 6.72 µM
[36]
  TGI: 4.17 µM
[37]
  TGI: 9.34 µM
[38]
  TGI: 7.59 µM
[39]
  TGI: 5.88 µM
[59]
  TGI: 4.3 µM
[41]
  TGI: 6.62 µM
[42]
  TGI: 14.5 µM
[43]
  TGI: 2.79 µM
[44]
  TGI: 3.97 µM
[45]
  TGI: 18.3 µM
[46]
  TGI: 17.1 µM
[47]
  TGI: 22.1 µM
[48]
  TGI: 5.87 µM
[49]
  TGI: 9.31 µM
[50]
  TGI: 11.4 µM
[52]
  TGI: 3.76 µM
[53]
  TGI: 33.5 µM
[54]
  TGI: 13.2 µM
[55]
  TGI: 8.46 µM
[56]
  TGI: 14 µM
[57]
  TGI: 20.8 µM
[58]
  TGI: 12.8 µM

## Clc1cc(OCC23CC4CC(CC(C4)C2)C3)nc(OCC23CC4CC(CC(C4)C2)C3)n1
[1]
  TGI: > 100 µM
[2]
  TGI: > 100 µM
[3]
  TGI: > 100 µM
[4]
  TGI: > 100 µM
[5]
  TGI: > 100 µM
[6]
  TGI: > 100 µM
[7]
  TGI: > 100 µM
[8]
  TGI: > 100 µM
[9]
  TGI: > 100 µM
[10]
  TGI: > 100 µM
[11]
  TGI: > 100 µM
[12]
  TGI: > 100 µM
[13]
  TGI: > 100 µM
[14]
  TGI: > 100 µM
[15]
  TGI: > 100 µM
[17]
  TGI: > 100 µM
[18]
  TGI: > 100 µM
[19]
  TGI: > 100 µM
[20]
  TGI: > 100 µM
[21]
  TGI: > 100 µM
[22]
  TGI: > 100 µM
[23]
  TGI: > 100 µM
[24]
  TGI: > 100 µM
[25]
  TGI: > 100 µM
[26]
  TGI: > 100 µM
[27]
  TGI: > 100 µM
[28]
  TGI: > 100 µM
[29]
  TGI: > 100 µM
[31]
  TGI: > 100 µM
[32]
  TGI: > 100 µM
[33]
  TGI: > 100 µM
[34]
  TGI: > 100 µM
[35]
  TGI: > 100 µM
[36]
  TGI: > 100 µM
[37]
  TGI: > 100 µM
[38]
  TGI: > 100 µM
[39]
  TGI: > 100 µM
[40]
  TGI: > 100 µM
[59]
  TGI: > 100 µM
[41]
  TGI: > 100 µM
[42]
  TGI: > 100 µM
[43]
  TGI: > 100 µM
[44]
  TGI: > 100 µM
[45]
  TGI: > 100 µM
[46]
  TGI: > 100 µM
[47]
  TGI: > 100 µM
[48]
  TGI: > 100 µM
[49]
  TGI: > 100 µM
[50]
  TGI: > 100 µM
[51]
  TGI: > 100 µM
[52]
  TGI: > 100 µM
[53]
  TGI: > 100 µM
[54]
  TGI: > 100 µM
[55]
  TGI: > 100 µM
[56]
  TGI: > 100 µM
[57]
  TGI: > 100 µM
[58]
  TGI: > 100 µM

Source: PubChem BioAssay (NCI)
